Data taken from patent publication US9339554B2, “Tunable, biodegradable linker molecules for transient conjugation of components in drug delivery systems, and drug delivery systems prepared therewith” (CRISTAL DELIVERY B.V., priority 2010, dated 2016).

Assay: In vitro release of DMS from DMS-prodrug-loaded core-cross-linked polymeric micelles
Assay type: physicochemical
Conditions: for 50% release of DMS: physiological conditions, prodrug covalently entrapped in CCL PM
Procedure: The eluent was acetonitril/H2O (23:77, v/v) with a flow rate of 1 mL/min. The sample volume was 7.5 μL. UV detection occurred at 246 nm.
The hydrolysis rate of a specific ester was pH-dependent in its turn, in that at pH 8.4 hydrolysis was accelerated as compared to the hydrolysis rate at pH 7.4. […] The same trend is consistently observed at different pH (i.e. 7.4 and 8.4) and for the different types of micelles (based on HPMAm and HEMAm).

Row | SMILES | 50% release of DMS [weeks] | DMS release rate followed by UPLC (prodrug CCL PM, buffer pH 7.4 / 8.4, 37° C.)
1 | C=C(C)C(=O)OCCSCC(=O)OCC(=O)[C@@]1(O)[C@H](C)CC2[C@@H]3CCC4=CC(=O)C=C[C@]4(C)[C@@]3(F)[C@@H](O)CC21C (stereo partly drawn) [DMSL1, 2-(2-(2-((8S,9R,10S,11S,16R,17R)-9-fluoro-11,17-dihydroxy-10,13,16-trimethyl-3-oxo-6,7,8,9,10,11,12,13,14,15,16,17-dodecahydro-3H-cyclopenta[α]phenanthren-17-yl)-2-oxoethoxy)-2-oxoethylthio)ethyl methacrylate] | ~4 | very slow release
2 | C=C(C)C(=O)OCCS(=O)(=O)CC(=O)OCC(=O)[C@@]1(O)[C@H](C)CC2[C@@H]3CCC4=CC(=O)C=C[C@]4(C)[C@@]3(F)[C@@H](O)CC21C (stereo partly drawn) [DMSL3, 2-(2-(2-((8S,9R,10S,11S,16R,17R)-9-fluoro-11,17-dihydroxy-10,13,16-trimethyl-3-oxo-6,7,8,9,10,11,12,13,14,15,16,17-dodecahydro-3H-cyclopenta[α]phenanthren-17-yl)-2-oxoethoxy)-2-oxoethylsulfonyl)ethyl methacrylate] | ~1 | –
